The text below walks through data of US20060167110A1 (priority 1995, published 2006).

Each structure is given as a SMILES string.

Test [1] deals with rat embryonic mesencephalic cells. Kind of test: [3H]dopamine uptake, medium change (glutamate receptor dependent) model of cell death.
Experimental: Preparations are then added to 10 ml Ecoscint (National Diagnostics) and counted in a scintillation spectrometer.
In these experiments, cells were plated and allowed to stabilize for several days.
Test [2] addresses T1, MAO-B (Cavia porcellus, UniProt P58028).
T1 construct: MAO-B (^14C-phenylethylamine) by human platelets and guinea pig hippocampal homogenates; from tissue; host or cells: guinea pig hippocampal homogenates
T1 sequence (P58028 1-520): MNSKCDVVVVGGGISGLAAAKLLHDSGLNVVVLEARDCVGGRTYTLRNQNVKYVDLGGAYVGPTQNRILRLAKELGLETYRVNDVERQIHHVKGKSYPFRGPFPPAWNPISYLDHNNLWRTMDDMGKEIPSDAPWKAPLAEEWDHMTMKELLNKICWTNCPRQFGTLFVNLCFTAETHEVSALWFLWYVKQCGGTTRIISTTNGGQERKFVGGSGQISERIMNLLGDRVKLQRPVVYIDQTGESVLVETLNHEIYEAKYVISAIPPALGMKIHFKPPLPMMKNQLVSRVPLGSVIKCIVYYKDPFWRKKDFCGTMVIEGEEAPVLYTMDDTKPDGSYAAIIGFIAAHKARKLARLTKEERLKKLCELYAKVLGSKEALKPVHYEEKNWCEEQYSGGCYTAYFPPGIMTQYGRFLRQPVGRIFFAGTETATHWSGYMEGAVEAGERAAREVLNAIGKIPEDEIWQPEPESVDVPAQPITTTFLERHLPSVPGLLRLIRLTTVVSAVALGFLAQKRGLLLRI
The test is described as follows: MAO-B inhibition in guinea pig hippocampal homogenates in vitro. In kind it is biochemical. From the text: (§1) Human platelet MAO is comprised exclusively of the type-B isoform of the enzyme. […] The present study also examined the two enantiomers of DMS for inhibitory activity with respect to the MAO-A and MAO-B in guinea pig hippocampal tissue. Guinea pig brain tissue is an excellent animal model for studying brain dopamine metabolism, the enzyme kinetics of the multiple forms of MAO and the inhibitory properties of novel agents that interact with these enzymes. The multiple forms of MAO in this animal species show similar kinetic properties to those found in human brain tissue. Finally, the test agents were administered to guinea pigs and the extent to which they might act as inhibitors of brain MAO in vivo was assessed.
(§2) In vitro: The test system utilized the in vitro conversion of specific substrates of MAO-A (^14C-serotonin) in guinea pig hippocampal homogenates or MAO-B (^14C-phenylethylamine) by human platelets and guinea pig hippocampal homogenates. […] A percent inhibition was calculated from these values.

Test [3] addresses T1, MAO-B. Kind of test: In vivo brain MAO-B inhibition in guinea pig hippocampus after 5 daily s.c. doses. The following applies: preliminary studies. On the procedure:
FIG. 20: In vivo MAO-B Inhibition in Guinea Pig Hippocampus. […] Animals were then sacrificed and the MAO-B activity in the hippocampus portion of the brain was determined. […] The plots were used to estimate the ID50 dosage for each agent.
Each enantiomer of DMS was administered in vivo by subcutaneous injection once a day for five consecutive days, and inhibition of brain MAO-B activity was then determined.

For test [4], the target named is T2, MAO-A (Rattus norvegicus, UniProt P21396).
T2 sequence (P21396 1-526): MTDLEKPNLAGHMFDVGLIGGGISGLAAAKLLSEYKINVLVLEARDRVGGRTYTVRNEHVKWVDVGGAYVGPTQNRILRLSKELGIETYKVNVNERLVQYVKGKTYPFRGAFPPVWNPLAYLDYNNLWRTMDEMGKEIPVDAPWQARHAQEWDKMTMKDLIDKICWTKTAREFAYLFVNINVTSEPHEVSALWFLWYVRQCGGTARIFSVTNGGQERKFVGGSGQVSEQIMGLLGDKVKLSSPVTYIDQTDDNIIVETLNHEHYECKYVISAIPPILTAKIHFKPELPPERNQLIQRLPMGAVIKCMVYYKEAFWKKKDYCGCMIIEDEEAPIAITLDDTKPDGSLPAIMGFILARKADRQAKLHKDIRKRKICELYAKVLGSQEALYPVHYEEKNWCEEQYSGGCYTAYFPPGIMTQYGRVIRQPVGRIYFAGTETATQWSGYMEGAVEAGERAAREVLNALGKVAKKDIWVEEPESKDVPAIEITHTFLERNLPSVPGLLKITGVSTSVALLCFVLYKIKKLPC
The test is described as follows: MAO-A inhibition in rat brain tissue. In kind it is biochemical. The arrangement: from tissue; host or cells: rat cortex mitochondrial-rich fractions.

Test [5] has as its target T3, MAO-A (Cavia porcellus, UniProt H0UVA2).
T3 sequence (H0UVA2 1-461): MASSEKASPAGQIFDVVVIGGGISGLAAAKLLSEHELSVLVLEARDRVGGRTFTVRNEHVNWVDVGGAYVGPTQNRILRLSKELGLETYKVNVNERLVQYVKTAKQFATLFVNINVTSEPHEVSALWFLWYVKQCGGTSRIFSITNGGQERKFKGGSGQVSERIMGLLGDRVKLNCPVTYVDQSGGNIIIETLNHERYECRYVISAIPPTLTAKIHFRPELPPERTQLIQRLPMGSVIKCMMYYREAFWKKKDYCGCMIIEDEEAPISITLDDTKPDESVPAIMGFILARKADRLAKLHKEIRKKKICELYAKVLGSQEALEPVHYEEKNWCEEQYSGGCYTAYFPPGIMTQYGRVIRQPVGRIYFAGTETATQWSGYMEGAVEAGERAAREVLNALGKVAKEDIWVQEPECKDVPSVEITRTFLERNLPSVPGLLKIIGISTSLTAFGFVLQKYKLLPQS
The test is described as follows: In vivo MAO-A inhibition in guinea pig cortex (hippocampus) after 5 s.c. treatments. The following applies: sc, read-out: inhibition of MAO-A activity.
Experimental: Hippocampal homogenates containing enzyme were prepared, and assays in vitro for MAO-A and MAO-B activity.

Test [6] addresses T3, MAO-A. Kind of test: MAO-A inhibition in guinea pig hippocampal homogenates in vitro. The arrangement: specific substrates of MAO-A (^14C-serotonin) in guinea pig hippocampal homogenates; from tissue; host or cells: guinea pig hippocampal homogenates. In kind it is biochemical.
Excerpt: as §1, §2

`C#CCN(C)Cc1ccccc1` [Pargyline, pargyline, reference compound]: in test [1] (at the concentrations used (0.5, 5 and 50 μM)), the “neuron protection by measurement of dopamine uptake (FIG. 15)” value (from here on “neuron protection by measurement”) is given as “did not appear to offer any protection”.

As a reminder, the IC50 is the concentration needed to halve the response being measured. Lower therefore signals greater potency. The inhibition is the drop in the measured response relative to a control, in per cent. Regarding `C#CCNC(C)Cc1ccccc1` (single isomer, unassigned) [R(−)DMS, R(−)-desmethylselegiline], the IC50 is 0.06 µM against MAO-B [2] (IC50 Values for the Inhibition of MAO-B, Guinea Pig Hippocampal Cortex); 70 µM at MAO-A [4]; 50 µM on MAO-A [6]. The “reduction in potency compared to selegiline, MAO-B, Guinea Pig Hippocampal Cortex” value at MAO-B [2] (figure in parentheses) was 60 nM (60). Moreover, the “times less potent than selegiline, brain MAO-B in vivo” value at MAO-B [3] was “about 10 times”. Also, the “times less potent than selegiline in inhibiting MAO-A” value on MAO-A [4] (in vitro, rat brain tissue) was “approximately 39 times”. For the same molecule, the inhibition at 3 mg/kg at MAO-A [5] was 29.8%. The “neuron protection by measurement” value in test [1] (5 μM) and in test [1] (50 μM) was “neuron protection” in each case. In addition, in test [1] (10 μM, medium change model), the “more axonal growth and terminal axonal survival compared to untreated control cells” value is on record as 40%. The “MAO-A % Reduction 0 ± SEM” value at MAO-A [6] (Concentration 300 nM) is 4.8 ± 2.1%; on MAO-A [6] (Concentration 1 μM) it was 4.2 ± 1.5%; at MAO-A [6] (Concentration 3 μM) it was 10.5 ± 2.0%; at MAO-A [6] (Concentration 10 μM), 19.0 ± 1.3%; at MAO-A [6] (Concentration 100 μM) it was 64.2 ± 1.5%; at MAO-A [6] (Concentration 1 mM), 96.5 + 1.2%. In addition, the “reduction in potency compared to selegiline, MAO-A” value on MAO-A [6] (figure in parentheses, times less potent) was found to be 20.

Regarding `C#CCN(C)CCCOc1ccc(Cl)cc1Cl` [clorgyline, reference compound], the “neuron protection by measurement” value in test [1] (50 μM) is reported as “protected”.

Turning to `C[C@]12N[C@H](Cc3ccccc31)c1ccccc12` [MK-801, reference compound], the “neuron protection by measurement” value in test [1] (10 μM) is on record as “protection was also obtained”.
